In test [1] the target is T1, Metallo-beta-lactamase type 2 (Klebsiella pneumoniae, UniProt C7C422). Description: Binding affinity to His-tagged Klebsiella pneumoniae NDM-1 expressed in Escherichia coli BL21-AI cells by surface plasmon resonance assay. (SPR reads the build-up and loss of mass on a sensor chip optically.)
The target in test [2] is T1, Metallo-beta-lactamase type 2. In words: Inhibition of His-tagged Klebsiella pneumoniae NDM-1 expressed in Escherichia coli BL21-AI cells using imipinem as substrate.
The target of test [3] is Metallo-beta-lactamase type 2 (Klebsiella pneumoniae) (UniProt C7C422). Description: Inhibition of His-tagged Klebsiella pneumoniae NDM-1 expressed in Escherichia coli BL21-AI cells at 500 uM using imipinem as substrate.
Test [4] shares this target. Description: Ratio of IC50 for inhibition of His-tagged Klebsiella pneumoniae NDM-1 expressed in Escherichia coli BL21-AI cells using imipinem as substrate to Kd for Binding affinity to His-tagged Klebsiella pneumoniae NDM-1 expressed in Escherichia coli BL21-AI cells by surface plasmon resonance assay.
Test [5] concerns the target T1, Metallo-beta-lactamase type 2. Description: Competitive inhibition of His-tagged Klebsiella pneumoniae NDM-1 expressed in Escherichia coli BL21-AI cells using imipinem as substrate.

The results in this text go back to ChEMBL document CHEMBL3785049, “Fragment-based discovery of inhibitor scaffolds targeting the metallo-β-lactamases NDM-1 and VIM-2” (Bioorg Med Chem Lett, 2016).

T1 sequence (C7C422 whole entry): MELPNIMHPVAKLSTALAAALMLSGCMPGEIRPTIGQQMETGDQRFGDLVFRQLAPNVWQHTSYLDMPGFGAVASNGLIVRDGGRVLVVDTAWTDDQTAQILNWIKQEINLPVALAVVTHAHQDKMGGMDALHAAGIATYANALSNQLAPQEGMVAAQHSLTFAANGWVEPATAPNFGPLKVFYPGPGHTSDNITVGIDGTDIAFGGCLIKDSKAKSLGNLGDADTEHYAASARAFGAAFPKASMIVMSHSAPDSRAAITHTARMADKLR
Chain of Metallo-beta-lactamase type 2 (Klebsiella pneumoniae) (C7C422 whole entry): as above

The compound `O=C(O)CCCc1c[nH]c2ccccc12` came in with a Kd in test [1] of 806 µM. Further, in test [2] (read-out: IC50), the IC50 is 1950 µM. In test [3], this compound returned an inhibition of more than 20%. Further, the Ratio in test [4] worked out at 1.5.
Consider `C[C@@H](O)[C@H]1C(=O)N2C(C(=O)O)=C(S[C@@H]3CN[C@H](C(=O)N(C)C)C3)[C@H](C)[C@H]12` [MEROPENEM], for which the equilibrium dissociation constant (Kd) in test [1] stood at 11 µM.
The compound `CCCc1ccc(C(=O)CCC(=O)O)cc1` displayed a Kd in test [1] of 2100 µM. For the same compound, the IC50 in test [2] (read-out: IC50) was 3110 µM. The inhibition in test [3] was more than 20%. Further, the Ratio in test [4] was found to be 1.5.
In turn, `O=C(O)CSc1ccnc2cc(Cl)ccc12` showed a dissociation constant Kd in test [1] of 804 µM. In addition, the IC50 is 1240 µM in test [2] (read-out: IC50) and 1070 µM in test [2] (read-out: pIC50 (converted)). Further, the inhibition in test [3] was more than 20%. In addition, in test [4], the Ratio was 1.5.
With `N#Cc1coc2ccccc2c1=O`, the affinity in test [5], expressed as Ki, was 186 µM. Further, in test [1], the Kd came out at 181 µM. For the same compound, the IC50 in test [2] (read-out: IC50) was determined as 480 µM. Moreover, the inhibition in test [3] is more than 20%. In addition, the Ratio in test [4] worked out at 1.5.

Usually Kd stands for the constant that tells how readily two partners part at equilibrium. Read a low Kd as higher affinity. One may read the inhibition as the share of the control response that was lost under treatment. What is called Ki is the dissociation constant of the complex between target and ligand, obtained from inhibition or displacement.
